Source: patent US20200384007A1, “LIPID NANOPARTICLES CONTAINING PHARMACEUTICAL AND/OR NUTRACEUTICAL AGENTS AND METHODS THEREOF” (Board of Regents, The University of Texas System, priority 2019, published 2020)
Read-outs that look alike come from different tables or passages of the source.

Experiments:
[1] = Physical and chemical stability as lyophilized powder or dry waxy solid at room temperature; format: physicochemical; details: DHA-dFdC-vitamin E (5.047% w/w) waxy solid mixture, 14 days
Experimental: A 30% (w/v) stock solution of sucrose as lyoprotectant was prepared with de-ionized and filtered (0.2 μm) water. 900 μL DHA-dFdC-SLNs in water suspension was mixed with 100 μL sucrose solution to obtain a final suspension having 3% (w/v) sucrose. DHA-dFdC-SLNs in suspension were stored at −20° C. for 30 min, transferred to −80° C. for 60 min, and finally transferred to a VirTis Advantage bench top tray lyophilizer (The VirTis Company, Inc. Gardiner, N.Y.). Lyophilization was performed over 72 hours (h) at pressure less than 200 mTorr under nitrogen atmosphere. The shelf temperature was gradually ramped from −40° C. to 26° C. After lyophilization, samples were sealed and stored in a desiccator at room temperature, protected from light.
To evaluate the physical and chemical stability of DHA-dFdC-SLNs in lyophilized powder, DHA-dFdC was extracted from the powder 0, 7, and 30 days post-storage. Lyophilized samples were reconstituted in 1 mL de-ionized and filtered (0.2 μm) water. […] The sample was re-dissolved in 100 μL of THF, and concentration was measured by HPLC.
As a control, DHA-dFdC was dissolved in ethanol and mixed with vitamin E at a final concentration of 5.047% (w/w) (Naguib et al., Neoplasia, 2016; 18(1):33-48). The solution was dried under nitrogen, sealed, and stored at room temperature, protected from light, and the content of DHA-dFdC was measured at various time points

[2] = system: B16-F10 cells; assay: In vitro cytotoxicity assay (MTT); format: cell-based, murine; details: Mus musculus, B16F10 cells, 48 h of incubation
Experimental: (§1) Cytotoxicity of DHA-dFdC-SLNs was evaluated in TC-1, B16-F10, and M-Wnt cells. Cells were seeded into 96-well plates (4000 cells/well for TC-1 and B16-F10 cells, 1000 cells/well for M-Wnt cells) and incubated at 37° C., 5% CO2 overnight. Cells were treated with various concentrations of DHA-dFdC, DHA-dFdC-SLNs, DHA-dFdC-free SLNs, or dimethyl sulfoxide (DMSO) for up to 48 h. As a control, cells were treated with fresh medium. Cell survival was determined using an MTT assay (Naguib et al., Mol. Pharma., 2014; 11(4):1239-1249). DHA-dFdC was dissolved in DMSO and diluted with cell culture media, whereas DHA-dFdC-SLNs and DHA-dFdC-free SLNs were dispersed directly in cell culture media.

[3] = system: M-Wnt cells; assay: In vitro cytotoxicity assay (MTT); format: cell-based, murine; details: Mus musculus, 24 h of incubation
Experimental: as §1

[4] = Pharmacokinetic studies, oral and i.v. (Example 2); format: in vivo, C57BL/6 mice
Experimental: The Institutional Animal Care and Use Committee at The University of Texas at Austin approved the animal protocol. Female C57BL/6 mice (6-8 weeks, Charles River Laboratories, Wilmington, Mass.) were fasted for 3 h. Water was allowed ad libitum. Mice were orally gavaged with DHA-dFdC dissolved in a vehicle solution (Tween 80 (10%, w/v), ethanol (5.2% v/v), and mannitol (5%, w/v) in sterile water) (Naguib, et al., Neoplasia, 2016, 18, (1), 33-48; Valdes, et al., Pharma. Res., 2017, 34, (6), 1224-1232) or the DHA-dFdC-SLNs suspended in a sterile mannitol solution (5%, w/v), or intravenously injected with the DHA-dFdC-SLNs suspended in a sterile mannitol solution (5%, w/v). The dose of DHA-dFdC was 2 mg per mouse. Mice (n=3) were euthanized at various time points (e.g., 0.25, 0.5, 1, 2, 5, 8, 12, and 24 h). Blood was collected into heparin-coated tubes, which were then centrifuged at 13,000 rcf for 20 min to isolate plasma. The plasma (200 μL) was mixed with 200 μL of isopropanol and 200 μL of cold PBS, vortexed and then incubated at 4° C. for 5 min Following incubation, 1000 μl of ethyl acetate was added. The mixture was vortexed for 5 min, followed by centrifugation at 18,000 rcf for 5 min. The supernatant was collected and dried under nitrogen. Finally, the residue was re-dissolved in 100 μl of THF, which was then analyzed using HPLC (Naguib, et al., Neoplasia, 2016, 18, (1), 33-48). As internal control 4-(N)-stearoyl 2′,2′-difluorodeoxycytidine (GemC18) was added in the samples before extraction (Sloat, et al., Intl. J. Pharma., 2011, 409, (1), 278-288). Data were analyzed using PK Solver®, assuming a two-compartmental model (Wang, et al., Oncotarget, 2017, 8, (52), 89876).

[5] = system: B16-F10 tumors; assay: Histology (H&E) of tumor tissues; format: in vivo, C57BL/6 mice; details: tumors collected on day 17 after i.v. treatment
Source text: Tumor tissues were fixed in formalin, embedded, and stained with hematoxylin and eosin (H&E) in the Histological and Tissue Analysis Facility in the Dell Pediatric Research Institute at The University of Texas at Austin.

[6] = system: B16-F10 tumors; assay: Antitumor activity of i.v. DHA-dFdC-SLNs in a mouse model; format: in vivo; details: 50 mg/kg DHA-dFdC on days 7, 10, 13, 16
Experimental: Female C57BL/6 mice (18-20 g, 6-8 weeks) were subcutaneously (s.c.) injected with B16-F10 (5×10^5 cells/mouse) in the right flank on day 0. Seven days later, mice were randomized in 5 groups (n=5-6) and i.v. injected with DHA-dFdC (1 mg/mouse, equivalent to 50 mg/kg) dissolved a vehicle solution (Tween 80 (10%, w/v), ethanol (5.2%, v/v), and mannitol (5%, w/v) in water), the vehicle solution (as a control) (Naguib et al., Neoplasia, 2016; 18(1):33-48; Valdes et al., Pharma. Res., 2017; 34(6):1224-1232), DHA-dFdC-SLNs (equivalent to 1 mg of DHA-dFdC/mouse), or the equivalent dose of DHA-dFdC-free SLNs; both SLNs were dispersed in sterile mannitol 5%, (w/v). As a control, one group of mice were left untreated. Treatments were repeated every 3 days for a total of 4 times. Mouse health and tumor growth were monitored daily. Tumor size was measured 2-3 times a week, and tumor volume was calculated as: volume (mm^3)=(length×width^2)/2. Mice were euthanized 17 days after B16-F10 cell injection, and tumor tissues were collected for histology study. For untreated mice, the length of some of the tumors reached 15 mm before day 17 and had to be euthanized earlier.

[7] = in an aqueous solution, DBA/2 mice; cited from earlier work
[8] = in water; cited from earlier work
[9] = system: B16-F10 tumors; assay: Antitumor activity of orally administered DHA-dFdC-SLNs in tumor-bearing mice (survival); format: in vivo; details: oral gavage
Experimental: Female C57BL/6 mice (18-20 g) were subcutaneously (s.c) injected with B16-F10 (5×10^5 cells/mouse) in the right flank on day 0. Seven days later, mice were randomized into 4 groups (n=7-8) and orally gavaged with DHA-dFdC (250 μg/mouse) dissolved in vehicle (Naguib, et al., Neoplasia, 2016, 18, (1), 33-48; Valdes, et al., Pharma. Res., 2017, 34, (6), 1224-1232), DHA-dFdC-SLNs (250 μg/mouse of DHA) dispersed in mannitol 5%, or DHA-dFdC-free SLNs dispersed in mannitol 5%. As a control, one group of mice were left untreated. Treatment was repeated every day until day 11. Mice were allowed to rest for two days, and treatment was resumed on day 13 and continued until day 20. Mice were monitored daily until the endpoint (e.g., death, tumor size reaching 15 mm, tumor ulceration, body weight loss of more than 20%, or other signs of severe distress and discomfort).

[10] = system: NCI-60 DTP human tumor cell lines; details: cited from earlier work
[11] = system: pancreatic tumor; details: several mouse models of pancreatic cancer; cited from earlier work
[12] = oral administration, 2 mg DHA-dFdC per mouse

For `CC/C=C\C/C=C\C/C=C\C/C=C\C/C=C\C/C=C\CCC(=O)Nc1ccn(C2OC(CO)C(O)C2(F)F)c(=O)n1` (stereo not shown) [DHA-dFdC, 4-(N)-docosahexaenoyl 2′, 2′-difluorodeoxycytidine], the “DHA-dFdC left after storage” value [1] was 19.1%±7.0, the IC50 [2] was 1810 nM and the IC50 [3] was 2150 nM. It also gave a bioavailability ([4]; female, C57BL/6, mouse, plasma, 2 mg per mouse, oral, in Tween 80/ethanol/water solution) of 54%, a Tmax ([4]; female, C57BL/6, mouse, plasma, po, 2 mg, oral administration, 2 mg DHA-dFdC per mouse, read-out: Tmax) of 1.7 h and a Cmax ([4]; female, C57BL/6, plasma, oral administration, 2 mg DHA-dFdC per mouse) of 10500 ng/mL. It also gave an AUC(0-t) ([4]; female, C57BL/6, plasma, oral administration, 2 mg DHA-dFdC per mouse, read-out: AUC 0-24) of 114 µg·h/mL, a T1/2α [4, 12] of 1.07 h and a Tmax [4, 12] of 1.75 h. For the same compound, the k12 [4, 12] was 0.56 h⁻¹, the “H&E histology findings in tumors” value [5] was “vascular collapse, high desmoplasia, and necrotic areas” and the tumor growth delay [6] was 4 days. For the same compound, the “tumor size / control of tumor growth versus comparison groups” value [6] was “no significant difference”, the “repeat dose-maximum tolerated dose” value [7] was 50 mg/kg and the intrinsic solubility [8] was roughly 25 µg/mL. For the same compound, the “survival compared to untreated mice” value ([9]; 250 μg DHA-dFdC per mouse daily for 12 days) was “did not significantly affect mouse survival”, the “mice showing signs of toxicity (body weight decrease of more than 20% or severe tumor ulceration)” value ([9]; in Tween 80/ethanol/water solution, 250 μg per mouse daily) was 62.5% and the antitumor activity [10] was “potent and broad spectrum antitumor activity”. For the same compound, the “control of pancreatic tumor growth versus gemcitabine” value [11] was “significantly more effective than the molar equivalent dose of gemcitabine”.
